Legend:
[1] = tested on: mouse glucocorticoid-induced atrophy model; experiment: mouse glucocorticoid-induced atrophy model; format: in vivo
Procedure: Legend: A—water only with no dexamethasone included in drinking water (non-atrophied control); B—water+dexamethasone (atrophied control); C—amylin (0.3 mg/kg/d)+theophylline+dexamethasone; D—amylin (1.0 mg/kg/d)+theophylline+dexamethasone; *—p≦0.05 compared to water; #—p≦0.05 compared to water+dexamethasone. Following the addition of the glucocorticoid, dexamethasone, to the drinking water (1.2 mg/kg/d), male mice were injected subcutaneously in the midscapular region twice daily with amylin, at the doses indicated above or vehicle control (physiological saline) for nine days. Amylin was co-administered with twice daily intra-peritoneal dosing of the phosphodiesterase inhibitor theophylline (30 mg/kg). Nine days following the initiation of dosing amylin, the medial gastrocnemius and tibialis anterior muscles were removed and weighed to determine the degree of atrophy.
The glucocorticoid-induced atrophy model involves the administration of a glucocorticoid to the test animal, e.g., 1.2 mg/kg/day of dexamethasone in the drinking water. Typically, in untreated animals, skeletal muscle mass is reduced 30-50% following ten days of dexamethasone administration. Concomitantly with, or following glucocorticoid administration, test compounds are administered e.g., by injection or by continuous infusion to determine their effect on glucocorticoid-induced skeletal muscle atrophy. At various times following glucocorticoid administration, the extent of atrophy in the affected muscles is analyzed as described above for the denervation model.

[2] = tested on: leg casting disuse atrophy model; experiment: leg casting disuse atrophy model; format: in vivo, mouse
Procedure: Legend: A—physiological saline (control); B—amylin (0.1 mg/kg)+theophylline; C—amylin (0.3 mg/kg)+theophylline; D—amylin (1.0 mg/kg)+theophylline; *—p≦0.05 compared to saline. Following casting of the right hind leg, male mice were injected subcutaneously in the midscapular region twice daily, with amylin or vehicle control (physiological saline) for ten days at the daily delivered dose indicated. Amylin was co-administered with twice daily intra-peritoneal dosing of the phosphodiesterase inhibitor theophylline (30 mg/kg). On day ten, the medial gastrocnemius and tibialis anterior muscles were removed and weighed to determine the degree of atrophy.
The leg casting disuse atrophy model involves casting one hind leg of an animal from the knee down through the foot. Typically, muscle mass is reduced 20-40% after ten days of casting. Following casting, test compounds are administered by injection or by continuous infusion via implantation of an osmotic minipump (e.g., Alzet, Palo Alto, Calif.) to determine their effect on leg casting induced skeletal muscle atrophy. At various times following leg casting, the extent of atrophy in the affected muscles is analyzed as described above for the denervation model.

[3] = tested on: mouse sciatic nerve denervation atrophy model; experiment: mouse sciatic nerve denervation atrophy model; format: in vivo
Procedure: Legend: A—non-denervated medial gastrocnemius muscle from mice treated with physiological saline (non-atrophied control); B—denervated medial gastrocnemius muscle from mice treated with physiological saline (atrophied control); C—amylin (0.03 mg/kg)+theophylline; D—amylin (0.1 mg/kg)+theophylline; E—amylin (0.3 mg/kg)+theophylline. * —p≦0.05 compared to saline. Following denervation of the right sciatic nerve, male mice were injected subcutaneously in the midscapular region twice daily with amylin, at the doses indicated above or vehicle control (physiological saline) for nine days. […] On day nine, the medial gastrocnemius muscle was removed and weighed to determine the degree of atrophy.
The sciatic nerve denervation atrophy model involves anesthetizing the animal followed by the surgical removal of a short segment of either the right or left sciatic nerve, e.g., in mice the sciatic nerve is isolated approximately at the midpoint along the femur and a 3-5 mm segment is removed. This denervates the lower hind limb musculature resulting in atrophy of these muscles. Typically, innervation to the biceps femoris is left intact to provide satisfactory motion of the knee for virtually normal ambulation. […] The extent of atrophy in the affected muscles is analyzed, for example, by measuring muscle mass, muscle cross-sectional area, myofiber cross-sectional area or contractile protein content.

[4] = tested on: human subject in a comatose state; experiment: prophylactic treatment of skeletal muscle atrophy in comatose state (Example 13); format: in vivo; conditions: human 60 kg, 5 ml of 12 mg/ml amylin stock in 500 ml saline, slow i.v. infusion once each day
Procedure: A human subject weighing 60 kg is admitted to the hospital in a comatose state. The subject is treated by this method to prevent atrophy of the skeletal muscle of the entire body due to disuse in the comatose state. Specifically, once each day while in the coma, the subject is administered, via slow intravenous infusion, approximately 500 ml of an aqueous solution that is prepared by addition of 5 ml of the following stock solution to 500 ml of sterile saline: […]

Compound	effect on skeletal muscle atrophy, theophylline administered alone ([1]; glucocorticoid-induced model, theophylline alone)	effect on skeletal muscle atrophy, theophylline administered alone ([2]; casting disuse model, theophylline alone)	effect on skeletal muscle atrophy, theophylline administered alone ([3]; denervation model, theophylline alone)	skeletal muscle mass and function [4]	glucocorticoid-induced atrophy of the tibialis anterior muscle (muscle weight) ([1]; male mice, dexamethasone 1.2 mg/kg/d in drinking water, amylin 0.3, 1.0 mg/kg/d s.c. twice daily + theophylline 30 mg/kg i.p., nine days, FIG. 2A)	glucocorticoid-induced atrophy of the medial gastrocnemius muscle (muscle weight) ([1]; male mice, dexamethasone 1.2 mg/kg/d in drinking water, amylin 0.3, 1.0 mg/kg/d s.c. twice daily + theophylline 30 mg/kg i.p., nine days, FIG. 2B)	disuse-induced (casting) atrophy of the tibialis anterior muscle (muscle weight) ([2]; male mice, casted right hind leg, amylin 0.1, 0.3, 1.0 mg/kg s.c. twice daily + theophylline 30 mg/kg i.p., ten days, FIG. 3A)	disuse-induced (casting) atrophy of the medial gastrocnemius muscle (muscle weight) ([2]; male mice, casted right hind leg, amylin 0.1, 0.3, 1.0 mg/kg s.c. twice daily + theophylline 30 mg/kg i.p., ten days, FIG. 3B)	hypertrophy of the tibialis anterior muscle of the non-casted leg ([2]; male mice, non-casted (normal) leg, amylin 0.1, 0.3, 1.0 mg/kg s.c. twice daily + theophylline 30 mg/kg i.p., ten days, FIG. 3A)	hypertrophy of the medial gastrocnemius muscle of the non-casted leg ([2]; male mice, non-casted (normal) leg, amylin 0.1, 0.3, 1.0 mg/kg s.c. twice daily + theophylline 30 mg/kg i.p., ten days, FIG. 3B)	denervation-induced atrophy of the medial gastrocnemius muscle (muscle weight) ([3]; male mice, amylin 0.03, 0.1, 0.3 mg/kg s.c. twice daily + theophylline 30 mg/kg i.p. twice daily, nine days, FIG. 1)
Cn1c(=O)c2[nH]cnc2n(C)c1=O [Theophylline, theophylline]	no effect	no effect	no effect	–	–	–	–	–	–	–	–
amylin (KCNTATCATQRLANFLVHSSNNFGAILSSTNVGSNTY; Islet amyloid polypeptide; UniProt P10997 34-70, looked up) [a 37 amino acid peptide; the ligand/agonist of the amylin receptors]	–	–	–	measurable preservation of skeletal muscle mass and function	inhibits glucocorticoid-induced muscle atrophy	inhibits glucocorticoid-induced muscle atrophy	inhibits disuse-induced atrophy	inhibits disuse-induced atrophy	statistically significant hypertrophy	statistically significant hypertrophy	inhibits denervation-induced atrophy

— patent publication US20040005997A1, “Methods for identifying compounds for regulating muscle mass of function using amylin receptors” (The Procter & Gamble Company, priority 2002, published 2004)
